# In paper PMC3511402, “Structural and Biochemical Studies on ATP Binding and Hydrolysis by the Escherichia coli RNA Chaperone Hfq” (PLoS ONE, 2012):
# How the values were obtained:
# full length E. coli Hfq = molecular target: T1, full length E. coli Hfq (Escherichia coli, UniProt P0A6X3); test: EMSA competition with […]'-labelled poly(A)[…] RNA; type: binding; conditions: 5 nM poly(A)27, 40 nM Hfq hexamer, pH 7.5, 2 mM MgOAc, room temperature; distal site competition
# T1 construct: full length, no added His tag (native histidines); plasmid pUH5 in E. coli AM111F' (printed for the ATPase preparations); hexamer
# T1 sequence (P0A6X3 2-102): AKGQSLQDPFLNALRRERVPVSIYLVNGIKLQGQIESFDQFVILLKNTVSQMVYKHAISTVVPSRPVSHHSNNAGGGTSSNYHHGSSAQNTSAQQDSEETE
# Hfq65 = molecular target: T2, Hfq65 (Escherichia coli, UniProt P0A6X3); test: X-ray crystal structure, […] Å; type: binding; conditions: distal-face R-sites, four of six sites occupied; ATP 1:1 per subunit; Hepes pH ~7.5
# T2 construct: gene hfq; C-terminally truncated, aa 1-65; plasmid pUHfq65 expressed in E. coli hfq- strain AM111F'; untagged; hexamer
# T2 sequence (P0A6X3 1-65): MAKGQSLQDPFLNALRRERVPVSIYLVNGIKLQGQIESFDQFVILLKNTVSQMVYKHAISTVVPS
structure (smiles),measurement,setting,value
Nc1ncnc2c1ncn2[C@@H]1O[C@H](COP(=O)(O)OP(=O)(O)OP(=O)(O)O)[C@@H](O)[C@H]1O [ATP],% RNA released at 10 mM ATP,full length E. coli Hfq,~ 50%
same,"X-ray crystal structure, 2.15 Å",Hfq65,electron density corresponding to the ATP molecules was observed in four out of six R-sites
